Data on three compounds can be found in patent US6340594B1, “Production of desiccation-tolerant gymnosperm embryos” (CellFor, Inc., priority 1991, dated 2002).

Common to all, as to type: cell-based
The test system of assay [1] is white spruce somatic embryos. In words: Lipid (TL, TAG) content and fatty acid composition of somatic embryos. Particulars: 7.5% PEG, 8 weeks; for Fatty acid composition of TAG (%) 18:2^b: FA col 7/9; for Fatty acid composition of TAG (%) ΣC-20, 22^c: FA col 9/9. On the procedure: Experiments were set up to observe the effects of different culture conditions on somatic embryo lipid biosynthesis. […] Sigma, St Louis, USA). […] Somatic embryos were maintained on these media for 4 weeks in the dark prior to lipid analysis. […] The lipid contents of immature somatic embryos from suspension culture were also determined. Investigations were conducted to observe the effects of different ABA concentrations, in the presence of PEG, on lipid biosynthesis. […] Matured somatic embryos were transferred on their filter-paper supports to unsealed petri dishes which were then placed within the 81% r.h. desiccator. Total secondary desiccation treatment time was 2 weeks. […] Results were compared to those of somatic embryos matured under the same conditions but not further desiccated. The whole white spruce seeds, isolated zygotic embryos, somatic embryos from the various treatments, and regenerated plantlets and zygotic seedlings were counted, blotted dry, and fresh weights determined. The samples were then placed in an oven at 80° C. for 24 h and dry weights recorded. Lipids were extracted from fresh tissues by the hexane/isopropane method of Hara and Radin (1978), after first placing the samples in boiling isopropane for 10 min. TAGs were separated from total lipid extracts by thin layer chromatography using […] 60 plates (Mandel Scientific Co., Toronto, Canada). […] TAGs were identified using authentic standards and scraped from the plates using a razor blade. Fatty acid methyl esters ([…] prepared from TAGs and total lipid extracts, as previously described (Pomeroy et al. 1991). […] Each lipid extract sample was divided into 2-3 replicates for analysis, and experiments were repeated three times. Results shown are means of one experiment.

For assay [2], the system named is white spruce somatic embryos. Kind of assay: Molecular size threshold of solutes for promoting maturation. To be noted: 20 μM ABA; for Mature embryos per replicate (± SE): solute 7.5% added to 3% sucrose base, 9 weeks; for recovery of mature embryos: solute at 2.5 and 5% (w/v), 3% sucrose base. On the procedure: In order to determine the effective molecular weight and size range of solutes that promote the maturation of immature white spruce somatic embryos, they were matured in half-strength LP maturation medium containing a range of different solutes of differing molecular weight. Five replicates were prepared per treatment, and treatments were repeated twice. […] The treatment time was 9 weeks. […] The somatic embryos remained wet throughout the maturation treatment which led to poorly formed embryos at low frequency. […] For all treatments, only normal looking cotyledonary stage opaque white embryos were scored and used for lipid analyses. Levels of lipid triacylglycerols (TAGs) were analyzed as described later and results provided are means of two replicates.

Assay [3] deals with white spruce somatic embryos. In words: Somatic embryo maturation with PEG-4000 (maturation frequency). To be noted: preliminary experiments. How it is done:
Maturation of somatic embryos was carried out using methods modified from Attree et al. (1990). Suspension cultured somatic embryos were washed and resuspended (20% w/v) in half-strength PGR-free BM containing 3% sucrose, to remove the previous PGRs, then 0.75 ml aliquots were pipetted onto filter paper supports (Whatman no. 2) on the surface of maturation medium. The supports facilitated subsequent transfers to fresh media. To determine the mean number of somatic embryos plated, 10 μl samples of the 20% suspension were stained with acetocarmine (B.D.H.) and counted (repeated 15 times). The plated somatic embryos were maintained on the maturation medium for 4 weeks in the dark. To test the effect of increased osmoticum, the following concentrations of PEG-4000 (Fluka AG) were included in the maturation medium; 0, 2.5, 5.0, 7.5 and 10% (w/v) (25 replicates per treatment). Maturation frequencies per treatment were calculated as the percent mean number of somatic embryos that matured to normal-looking cotyledonary embryos. Maturation frequency results are shown in FIG. 1 (±confidence limits, P=0.05)
The application of PEG-4000 in the presence of 16 μM ABA for 28 d promoted the maturation of white spruce somatic embryos (FIG. 1). The mean number of immature somatic embryos plated per replicate was 560, and maturation results are based upon a total of 4087 mature embryos recovered. […]

Setting [4] is: ABA 12 μM, desiccated (D) 2 weeks 81% r.h.
The mark [5] stands for this setting: ABA 16 μM, desiccated (D) 2 weeks 81% r.h.
Setting [6] is: ABA 24 μM, desiccated (D) 2 weeks 81% r.h.
Setting [7] is: ABA 32 μM, desiccated (D) 2 weeks 81% r.h.

The structures appear in SMILES notation.

As to `CC1=CC(=O)CC(C)(C)C1(O)/C=C/C(C)=C\C(=O)O` (racemic) [ABA, abscisic acid], the “TAG % d wt” value in assay [1] (setting [4]) is on record as 26 % d wt; in assay [1] (ABA 12 μM, hydrated (H)), 14 % d wt; in assay [1] (setting [5]), 28 % d wt; in assay [1] (ABA 16 μM, hydrated (H)), 17 % d wt; in assay [1] (setting [6]), 30 % d wt; in assay [1] (ABA 24 μM, hydrated (H)), 20 % d wt. Besides, the “TAG % d wt” value in assay [1] (setting [7]) amounted to 20 % d wt; in assay [1] (ABA 32 μM, hydrated (H)), 17 % d wt. The “TAG μg (embryo)^−1” value is 186.6 μg (embryo)^−1 in assay [1] (setting [4]); 116 μg (embryo)^−1 in assay [1] (ABA 12 μM, hydrated (H)); 214 μg (embryo)^−1 in assay [1] (setting [5]); 143 μg (embryo)^−1 in assay [1] (ABA 16 μM, hydrated (H)); 186.2 μg (embryo)^−1 in assay [1] (setting [6]); 131 μg (embryo)^−1 in assay [1] (ABA 24 μM, hydrated (H)). The “TAG μg (embryo)^−1” value in assay [1] (setting [7]) was 170 μg (embryo)^−1; in assay [1] (ABA 32 μM, hydrated (H)), 130 μg (embryo)^−1. The TAG/TL % came to 85% in assay [1] (setting [4]); 79% in assay [1] (ABA 12 μM, hydrated (H)); 82% in assay [1] (setting [5]); 80% in assay [1] (ABA 16 μM, hydrated (H)); 80% in assay [1] (setting [6]); 77% in assay [1] (ABA 24 μM, hydrated (H)). Also, the TAG/TL % in assay [1] (setting [7]) came out at 64%; in assay [1] (ABA 32 μM, hydrated (H)), 67%. Moreover, the “TL % d wt” value in assay [1] (setting [4]) amounted to 31 % d wt; in assay [1] (ABA 12 μM, hydrated (H)) it was 18 % d wt; in assay [1] (setting [5]), 35 % d wt; in assay [1] (ABA 16 μM, hydrated (H)) it was 22 % d wt; in assay [1] (setting [6]), 37 % d wt; in assay [1] (ABA 24 μM, hydrated (H)), 26 % d wt. Besides, the “TL % d wt” value in assay [1] (setting [7]) is 31 % d wt; in assay [1] (ABA 32 μM, hydrated (H)) it was 26 % d wt. Besides, the “TL μg (embryo)^−1” value in assay [1] (setting [4]) was 220 μg (embryo)^−1; in assay [1] (ABA 12 μM, hydrated (H)) it was 146 μg (embryo)^−1; in assay [1] (setting [5]) it was 260 μg (embryo)^−1; in assay [1] (ABA 16 μM, hydrated (H)), 179 μg (embryo)^−1; in assay [1] (setting [6]) it was 232.5 μg (embryo)^−1; in assay [1] (ABA 24 μM, hydrated (H)), 170 μg (embryo)^−1. Besides, the “TL μg (embryo)^−1” value is 264 μg (embryo)^−1 in assay [1] (setting [7]) and 193 μg (embryo)^−1 in assay [1] (ABA 32 μM, hydrated (H)). Moreover, the “Fatty acid composition of TAG (%) 18:2^b” value is reported as 15.4% in assay [1] (ABA 12 μM, D (81% r.h.)); 13.2% in assay [1] (ABA 12 μM, H); 15.4% in assay [1] (ABA 16 μM, D (81% r.h.)); 13.5% in assay [1] (ABA 16 μM, H); 15% in assay [1] (ABA 24 μM, D (81% r.h.)); 14.7% in assay [1] (ABA 24 μM, H). The “Fatty acid composition of TAG (%) 18:2^b” value in assay [1] (ABA 32 μM, D (81% r.h.)) is recorded as 14.9%; in assay [1] (ABA 32 μM, H), 14.6%. Further, the “Fatty acid composition of TAG (%) ΣC-20, 22^c” value is 1.4% in assay [1] (ABA 12 μM, D (81% r.h.)); 1.4% in assay [1] (ABA 12 μM, H); 1.5% in assay [1] (ABA 16 μM, D (81% r.h.)); 1% in assay [1] (ABA 16 μM, H); 1.5% in assay [1] (ABA 24 μM, D (81% r.h.)); 1.2% in assay [1] (ABA 24 μM, H). For the same compound, the “Fatty acid composition of TAG (%) ΣC-20, 22^c” value in assay [1] (ABA 32 μM, D (81% r.h.)) is 2.5%; in assay [1] (ABA 32 μM, H) it was 1.6%.

On to `OC[C@@H](O)[C@@H](O)[C@H](O)[C@H](O)CO` [Mannitol, mannitol], for which, in assay [2], the “Mature embryos per replicate (± SE)” value amounted to 0 and the “recovery of mature embryos” value is listed as “did not result in recovery of any mature embryos”.

On to `OC[C@H]1O[C@@](CO)(O[C@H]2O[C@H](CO)[C@@H](O)[C@H](O)[C@H]2O)[C@@H](O)[C@@H]1O` [Sucrose, sucrose], for which the “maturation frequencies, visual comparison” value in assay [3] (6% sucrose) is “lower maturation frequencies”. For the same compound, the “growth, visual comparison” value in assay [3] (9% sucrose) is “no growth”. Moreover, in assay [2], the “Mature embryos per replicate (± SE)” value is 0 and the “recovery of mature embryos” value is “did not result in recovery of any mature embryos”.
